Data on 16 molecules can be found in patent publication EP2495244A1, “Piperidinyl benzoimidazole derivatives as mPGEs-1 inhibitors” (NovaSaid AB, priority 2011, dated 2012).

The target in one assay is T1, human mPGEs-1 (Homo sapiens, UniProt O14684).
T1 sequence (O14684 1-152): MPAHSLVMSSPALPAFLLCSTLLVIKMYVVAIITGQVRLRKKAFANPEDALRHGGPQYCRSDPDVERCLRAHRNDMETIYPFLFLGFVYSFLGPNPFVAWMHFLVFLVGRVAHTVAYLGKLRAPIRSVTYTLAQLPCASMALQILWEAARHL
Kind of assay: Thiobarbituric acid assay (TBA-MDA assay, malondialdehyde assay) for inhibition of mPGEs-1.

A further assay has as its system cellular PGE2 synthesis. Kind of assay: A549 cell-assay (PGE2 content of supernatant by EIA). It is filed as cell-based. Conditions: Homo sapiens, A549 lung carcinoma cells, TNFalfa (5 ng/mL) and IL-1beta (5 ng/mL) 16 hours, 30 minutes with test compound, 10 µM arachidonic acid 30 minutes, arithmetic mean values. On the procedure:
Prostaglandin detection kits were purchased from Cayman Chemicals and used according to the instruction of the manufacturer.
A549 lung carcinoma cells, seeded at a density of 10, 000 cells/well, were grown in 96 well tissue culture plates. TNFalfa (5 ng/mL) and IL-1beta (5 ng/mL) were added and the cells were incubated for 16 hours. Cells were washed in PBS and test compounds at the appropriate concentration in HBSS/0.1% BSA were added. After 30 minutes of incubation with test compounds, 10 µM arachidonic acid was added and cells were further incubated for 30 minutes. Supernatant was collected and analyzed for PGE2 content by EIA according to manufacturer's instructions. Table 1. Inhibition of human mPGEs-1 and cellular PGE2 synthesis.

Each structure is given as a SMILES string.

`O=C(N[C@@H]1CCOC1)C1CCN(c2nc3cc(Cl)c(Cl)cc3n2-c2ccc3cc(Cl)ccc3n2)CC1` [Example 4, (R)-1-(5,6-Dichloro-1-(6-chloroquinolin-2-yl)-1H-benzo[d]imidazol-2-yl)-N-(tetrahydrofuran-3-yl)piperidine-4-carboxamide]: the IC50 against human mPGEs-1 was 35 nM; with cellular PGE2 synthesis, 44 nM. For the molecule `Cc1cc2nc(N3CCC(C(=O)N[C@@H]4CCOC4)CC3)n(-c3ccc4ncccc4c3)c2cc1C` [Example 15, (R)-1-(5,6-dimethyl-1-(quinolin-6-yl)-1H-benzo[d]imidazol-2-yl)-N-(tetrahydrofuran-3-yl)piperidine-4-carboxamide], the IC50 against human mPGEs-1 stood at 65 nM; in the assay on cellular PGE2 synthesis it was 66 nM.

`Cc1cc2nc(N3CCC(C(=O)N[C@@H]4CCOC4)CC3)n(-c3ccc4cc(F)ccc4n3)c2cc1Cl` [Example 12, (R)-1-(6-Chloro-1-(6-fluoroquinolin-2-yl)-5-methyl-1H-benzo[d]imidazol-2-yl)-N-(tetrahydrofuran-3-yl)piperidine-4-carboxamide]: the 50% inhibitory concentration (IC50) came out at 26 nM against human mPGEs-1 and 24 nM with cellular PGE2 synthesis. Molecule `O=C(N[C@@H]1CCOC1)C1CCN(c2nc3cc(Cl)c(Cl)cc3n2-c2ccc3ccccc3n2)CC1` [Example 1, (R)-1-(5,6-Dichloro-1-(quinolin-2-yl)-1H-benzo[d]imidazol-2-yl)-N-(tetrahydrofuran-3-yl)piperidine-4-carboxamide] yielded an IC50 in the assay with cellular PGE2 synthesis of 43 nM. Consider `Cc1cc2nc(N3CCC(C(=O)N[C@@H]4CCOC4)CC3)n(-c3ccc4cc(Cl)ccc4n3)c2cc1C` [Example 6, (R)-1-(1-(6-Chloroquinolin-2-yl)-5,6-dimethyl-1H-benzo[d]imidazol-2-yl)-N-(tetrahydrofuran-3-yl)piperidine-4-carboxamide], for which the values for the IC50 against human mPGEs-1 and in the assay on cellular PGE2 synthesis were 58 nM and 50 nM, respectively. With `Cc1cc2c(cc1Cl)nc(N1CCC(C(=O)N[C@@H]3CCOC3)CC1)n2-c1ccc2cc(Cl)ccc2n1` [Example 8, (R)-1-(5-Chloro-1-(6-chloroquinolin-2-yl)-6-methyl-1H-benzo[d]imidazol-2-yl)-N-(tetrahydrofuran-3-yl)piperidine-4-carboxamide], the IC50 was determined as 31 nM at human mPGEs-1 and 40 nM in the assay on cellular PGE2 synthesis. Take `O=C(N[C@@H]1CCOC1)C1CCN(c2nc3cc(Cl)c(Cl)cc3n2-c2ccc3cc(F)ccc3n2)CC1` [Example 10, (R)-1-(5,6-Dichloro-1-(6-fluoroquinolin-2-yl)-1H-benzo[d]imidazol-2-yl)-N-(tetrahydrofuran-3-yl)piperidine-4-carboxamide]: the values for the half-maximal inhibitory concentration (IC50) against human mPGEs-1 and with cellular PGE2 synthesis were 42 nM and 61 nM, respectively. Take `Cc1cc2nc(N3CCC(C(=O)N[C@@H]4CCOC4)CC3)n(-c3ccc4ccccc4n3)c2cc1Cl` [Example 3, (R)-1-(6-Chloro-5-methyl-1-(quinolin-2-yl)-1H-benzo[d]imidazol-2-yl)-N (tetrahydrofuran-3-yl)piperidine-4-carboxamide]: the half-maximal inhibitory concentration (IC50) came to 37 nM against human mPGEs-1 and 58 nM in the assay on cellular PGE2 synthesis. In turn, `O=C(N[C@@H]1CCOC1)C1CCN(c2nc3cc(Cl)c(Cl)cc3n2-c2ccccn2)CC1` [Example 16, (R)-1-(5,6-dichloro-1-(pyridin-2-yl)-1H-benzo[d]imidazol-2-yl)-N-(tetrahydrofuran-3-yl)piperidine-4-carboxamide] displayed a half-maximal inhibitory concentration (IC50) against human mPGEs-1 of 150 nM. In the case of `Cc1cc2nc(N3CCC(C(=O)N[C@@H]4CCOC4)CC3)n(-c3ccc4cc(Cl)ccc4n3)c2cc1Cl` [Example 9, (R)-1-(6-Chloro-1-(6-chloroquinolin-2-yl)-5-methyl-1H-benzo[d]imidazol-2-yl)-N-(tetrahydrofuran-3-yl)piperidine-4-carboxamide], the IC50 on human mPGEs-1 is 51 nM; in the assay on cellular PGE2 synthesis it was 67 nM. Regarding `Cc1cc(-n2c(N3CCC(C(=O)N[C@@H]4CCOC4)CC3)nc3cc(Cl)c(Cl)cc32)nc2ccccc12` [Example 7, (R)-1-(5,6-Dichloro-1-(4-methylquinolin-2-yl)-1H-benzo[d]imidazol-2-yl)-N-(tetrahydrofuran-3-yl)piperidine-4-carboxamide], the IC50 on human mPGEs-1 worked out at 32 nM; with cellular PGE2 synthesis, 30 nM.

On to `Cc1cc2c(cc1Cl)nc(N1CCC(C(=O)N[C@@H]3CCOC3)CC1)n2-c1ccc2cc(F)ccc2n1` [Example 11, (R)-1-(5-Chloro-1-(6-fluoroquinolin-2-yl)-6-methyl-1H-benzo[d]imidazol-2-yl)-N-(tetrahydrofuran-3-yl)piperidine-4-carboxamide], for which the concentration for half-maximal inhibition (IC50) stood at 47 nM on human mPGEs-1 and 16 nM with cellular PGE2 synthesis. Consider `O=C(N[C@@H]1CCOC1)C1CCN(c2nc3cc(Cl)c(Cl)cc3n2-c2ccc3cccc(Cl)c3n2)CC1` [Example 5, (R)-1-(5,6-Dichloro-1-(8-chloroquinolin-2-yl)-1H-benzo[d]imidazol-2-yl)-N-(tetrahydrofuran-3-yl)piperidine-4-carboxamide], for which the figures for the IC50 on human mPGEs-1 and in the assay with cellular PGE2 synthesis were 34 nM and 4 nM, respectively.

Molecule `O=C(N[C@@H]1CCOC1)C1CCN(c2nc3cc(Cl)c(Cl)cc3n2-c2cc3ccccc3cn2)CC1` [Example 14, (R)-1-(5,6-Dichloro-1-(isoquinolin-3-yl)-1H-benzo[d]imidazol-2-yl)-N-(tetrahydrofuran-3-yl)piperidine-4-carboxamide] came in with an IC50 against human mPGEs-1 of 21 nM.

`O=C(N[C@@H]1CCOC1)C1CCN(c2nc3cc(Cl)c(Cl)cc3n2-c2ccc3cccc(F)c3n2)CC1` [Example 13, (R)-1-(5,6-Dichloro-1-(8-fluoroquinolin-2-yl)-1H-benzo[d]imidazol-2-yl)-N-(tetrahydrofuran-3-yl)piperidine-4-carboxamide] returned an IC50 against human mPGEs-1 of 30 nM. For the molecule `Cc1cc2c(cc1Cl)nc(N1CCC(C(=O)N[C@@H]3CCOC3)CC1)n2-c1ccc2ccccc2n1` [Example 2, (R)-1-(5-Chloro-6-methyl-1-(quinolin-2-yl)-1H-benzo[d]imidazol-2-yl)-N-(tetrahydrofuran-3-yl)piperidine-4-carboxamide], the IC50 amounted to 25 nM at human mPGEs-1 and 58 nM with cellular PGE2 synthesis.

As usually defined, the IC50 is the concentration that gives 50% inhibition.
